This is an account of results in article PMC12137728, “The hydroxamate based HDAC inhibitor WMJ-J-09 induces colorectal cancer cell death by targeting tubulin and downregulating survivin” (Scientific Reports, 2025).

This assay concerns tubulin in HCT116 cells. Kind of assay: Microtubule assembly / polymerized tubulin (immunofluorescence, western blot). The format is cell-based, human. To be noted: HCT116 cell lysate.

Experimental: Following the indicated treatments, a lysis buffer containing NP-40 (0.5%), Tris (10 mM) (pH 7.0), PMSF (2 mM), NaCl (140 mM), leupeptin (0.2 mM), and pepstatin A (0.05 mM) was utilized to lyse cells to extract proteins. SDS-PAGE was utilized to separate protein samples in equal quantities, then transferred to a nitrocellulose membrane (Pall Corporation, Washington, NY, U.S.A.). Following transfer and 1-h blocking by incubation with TBST buffer containing 5% non-fat, the proteins immobilized on the membranes undergo primary antibody hybridization. Secondary antibodies conjugated with horseradish peroxidase were used to detect target proteins. Immunoreactivity was detected using the Western chemiluminescent HRP substrate kit, as per the manufacturer’s recommendations. We used a densitometer integrated into a scientific imaging system (Biospectrum AC System, UVP) to obtain quantitative data. We examined tubulin assembly as previously described [8]. […] Subsequently, the cells were washed with PBS twice and fixed with 4% paraformaldehyde at room temperature for 15 min. Cells were permeabilized by incubation with PBS containing Triton X-100 (0.1%) for 30 min. […] The distribution of tubulin was analyzed using a confocal microscope (Zeiss, LSM 410). Green fluorescence represented β-tubulin, while blue fluorescence (derived from DAPI) corresponds to nuclei.

Regarding `CC(=O)O[C@H]1C(=O)[C@@]2(C)[C@H]([C@H](OC(=O)c3ccccc3)[C@]3(O)C[C@H](OC(=O)[C@H](O)[C@@H](NC(=O)c4ccccc4)c4ccccc4)C(C)=C1C3(C)C)[C@]1(OC(C)=O)CO[C@@H]1C[C@@H]2O` [Paclitaxel, paclitaxel], the polymerized tubulin fraction entry is on record as “increased the polymeric tubulin”.
